{"source": "ChEMBL document CHEMBL3044903", "about": "“Synthesis and Herbicidal Activity of Novel 3-Alkoxycarbonyl-3-aryl-2,3-dihydro-2-oxo-1H-pyrrole Derivatives” (J Pestic Sci, 2004)", "key": {"Oryza sativa [1]": {"tested_on": "Oryza sativa", "experiment": "Phytotoxicity against two-leaf stage Oryza sativa cv. Nipponbare (rice) planted 2 cm depth at 5.0 g a.i/a measured after 3 weeks", "type": "organism-based", "conditions": "in vivo, 504 h"}, "Echinochloa oryzicola [2]": {"tested_on": "Echinochloa oryzicola", "experiment": "Post-emergence herbicide activity against Echinochloa oryzicola under greenhouse condition at 1 g a.i/a treated at one-leaf stage measured after 3 weeks", "type": "functional"}, "[3]": {"tested_on": "Schoenoplectiella juncoides", "experiment": "Pre-emergence herbicide activity against Schoenoplectiella juncoides under greenhouse condition at 10 g a.i/a measured after 3 weeks", "type": "functional"}, "Oryza sativa [4]": {"tested_on": "Oryza sativa", "experiment": "Phytotoxicity against two-leaf stage Oryza sativa cv. Nipponbare (rice) planted zero cm depth at 2.5 g a.i/a measured after 3 weeks", "type": "organism-based", "conditions": "in vivo, other, 504 h"}, "Echinochloa oryzicola [5]": {"tested_on": "Echinochloa oryzicola", "experiment": "Post-emergence herbicide activity against Echinochloa oryzicola under greenhouse condition at 10 g a.i/a treated at one-leaf stage measured after 3 weeks", "type": "functional"}, "Echinochloa oryzicola [6]": {"tested_on": "Echinochloa oryzicola", "experiment": "Herbicidal activity against Echinochloa oryzicola at 1 g a.i/a treated at 2.5 leaf stage measured after 3 weeks", "type": "functional"}, "[7]": {"tested_on": "Schoenoplectiella juncoides", "experiment": "Post-emergence herbicide activity against Schoenoplectiella juncoides under greenhouse condition at 1 g a.i/a treated at one-leaf stage measured after 3 weeks", "type": "functional"}, "Oryza sativa [8]": {"tested_on": "Oryza sativa", "experiment": "Phytotoxicity against two-leaf stage Oryza sativa cv. Nipponbare (rice) planted 2 cm depth assessed as crop injury at 3 g a.i/a followed by leaching of irrigation water for 3 days measured after 3 weeks post-treatment", "type": "organism-based", "conditions": "in vivo, other, 504 h"}, "[9]": {"tested_on": "Schoenoplectiella juncoides", "experiment": "Pre-emergence herbicide activity against Schoenoplectiella juncoides under greenhouse condition at 1 g a.i/a measured after 3 weeks", "type": "functional"}, "Echinochloa oryzicola [10]": {"tested_on": "Echinochloa oryzicola", "experiment": "Herbicidal activity against Echinochloa oryzicola at 2.5 g a.i/a treated at 2.5 leaf stage measured after 3 weeks", "type": "functional"}, "Echinochloa oryzicola [11]": {"tested_on": "Echinochloa oryzicola", "experiment": "Herbicidal activity against Echinochloa oryzicola at 1 g a.i/a treated at 1.5 leaf stage measured after 3 weeks", "type": "functional"}, "Oryza sativa [12]": {"tested_on": "Oryza sativa", "experiment": "Phytotoxicity against two-leaf stage Oryza sativa cv. Nipponbare (rice) planted 2 cm depth at 2.5 g a.i/a measured after 3 weeks", "type": "organism-based", "conditions": "in vivo, 504 h"}, "Echinochloa oryzicola [13]": {"tested_on": "Echinochloa oryzicola", "experiment": "Pre-emergence herbicide activity against Echinochloa oryzicola under greenhouse condition at 1 g a.i/a measured after 3 weeks", "type": "functional"}, "Oryza sativa [14]": {"tested_on": "Oryza sativa", "experiment": "Phytotoxicity against two-leaf stage Oryza sativa cv. Nipponbare (rice) planted zero cm depth at 1 g a.i/a measured after 3 weeks", "type": "organism-based", "conditions": "in vivo, other, 504 h"}, "Oryza sativa [15]": {"tested_on": "Oryza sativa", "experiment": "Phytotoxicity against two-leaf stage Oryza sativa cv. Nipponbare (rice) planted 2 cm depth assessed as crop injury at 6 g a.i/a followed by leaching of irrigation water for 3 days measured after 3 weeks post-treatment", "type": "organism-based", "conditions": "in vivo, other, 504 h"}, "Echinochloa oryzicola [16]": {"tested_on": "Echinochloa oryzicola", "experiment": "Herbicidal activity against Echinochloa oryzicola at 2.5 g a.i/a treated at 1.5 leaf stage measured after 3 weeks", "type": "functional"}, "Oryza sativa [17]": {"tested_on": "Oryza sativa", "experiment": "Phytotoxicity against two-leaf stage Oryza sativa cv. Nipponbare (rice) planted 2 cm depth at 1 g a.i/a measured after 3 weeks", "type": "organism-based", "conditions": "in vivo, other, 504 h"}, "Echinochloa oryzicola [18]": {"tested_on": "Echinochloa oryzicola", "experiment": "Herbicidal activity against Echinochloa oryzicola at 5.0 g a.i/a treated at 2.5 leaf stage measured after 3 weeks", "type": "functional"}, "Oryza sativa [19]": {"tested_on": "Oryza sativa", "experiment": "Phytotoxicity against two-leaf stage Oryza sativa cv. Nipponbare (rice) planted zero cm depth at 5.0 g a.i/a measured after 3 weeks", "type": "organism-based", "conditions": "in vivo, 504 h"}, "Echinochloa oryzicola [20]": {"tested_on": "Echinochloa oryzicola", "experiment": "Pre-emergence herbicide activity against Echinochloa oryzicola under greenhouse condition at 10 g a.i/a measured after 3 weeks", "type": "functional"}, "Echinochloa oryzicola [21]": {"tested_on": "Echinochloa oryzicola", "experiment": "Herbicidal activity against Echinochloa oryzicola at 5.0 g a.i/a treated at 1.5 leaf stage measured after 3 weeks", "type": "functional"}, "[22]": {"experiment": "Drug degradation in MeOH-water/KOH at 70 degC assessed as formation of 1-[1-(3,5-dichlorophenyl)-1-methylethyl]-4-methyl-3- phenyl-3-pyrrolin-2-one", "type": "physicochemical", "conditions": "buffer"}, "[23]": {"tested_on": "Schoenoplectiella juncoides", "experiment": "Post-emergence herbicide activity against Schoenoplectiella juncoides under greenhouse condition at 10 g a.i/a treated at one-leaf stage measured after 3 weeks", "type": "functional"}}, "data": [{"smiles": "COC(=O)C1(c2ccccc2)C(=O)N(C(C)(C)c2cc(Cl)cc(Cl)c2)C=C1C", "note": "(stereo not drawn)", "values": [{"measurement": "Activity", "setting": "Oryza sativa [1]", "value": 0, "unit": "%"}, {"measurement": "Activity", "setting": "Echinochloa oryzicola [2]", "value": 87.6, "unit": "%"}, {"measurement": "Activity", "setting": "[3]", "value": 100, "unit": "%"}, {"measurement": "Activity", "setting": "Oryza sativa [4]", "value": 10, "unit": "%"}, {"measurement": "Activity", "setting": "Echinochloa oryzicola [5]", "value": 100, "unit": "%"}, {"measurement": "Activity", "setting": "Echinochloa oryzicola [6]", "value": 60, "unit": "%"}, {"measurement": "Activity", "setting": "[7]", "value": 0.1, "unit": "%"}, {"measurement": "Activity", "setting": "Oryza sativa [8]", "value": 0, "unit": "%"}, {"measurement": "Activity", "setting": "[9]", "value": 100, "unit": "%"}, {"measurement": "Activity", "setting": "Echinochloa oryzicola [10]", "value": 95, "unit": "%"}, {"measurement": "Activity", "setting": "Echinochloa oryzicola [11]", "value": 98, "unit": "%"}, {"measurement": "Activity", "setting": "Oryza sativa [12]", "value": 0, "unit": "%"}, {"measurement": "Activity", "setting": "Echinochloa oryzicola [13]", "value": 100, "unit": "%"}, {"measurement": "Activity", "setting": "Oryza sativa [14]", "value": 0, "unit": "%"}, {"measurement": "Activity", "setting": "Oryza sativa [15]", "value": 7, "unit": "%"}, {"measurement": "Activity", "setting": "Echinochloa oryzicola [16]", "value": 98, "unit": "%"}, {"measurement": "Activity", "setting": "Oryza sativa [17]", "value": 0, "unit": "%"}, {"measurement": "Activity", "setting": "Echinochloa oryzicola [18]", "value": 98, "unit": "%"}, {"measurement": "Activity", "setting": "Oryza sativa [19]", "value": 80, "unit": "%"}, {"measurement": "Activity", "setting": "Echinochloa oryzicola [20]", "value": 100, "unit": "%"}, {"measurement": "Activity", "setting": "Echinochloa oryzicola [21]", "value": 100, "unit": "%"}, {"measurement": "Stability", "setting": "[22]", "value": "Unstable"}, {"measurement": "Activity", "setting": "[23]", "value": 87.6, "unit": "%"}]}]}
